Measured values published in article PMC3853740, “Chlorinated Didemnins from the Tunicate Trididemnum solidum” (Marine Drugs, 2013).
Read-outs that look alike come from different tables or passages of the source. *1 amine or outer side, *2 acyl side, *3 side chain or, on linkers, in order; H or OH if unused. Where a SMILES comes first, the peptide text is derived from it. Bridges are numbered along the chain shown (N, C = ends). [ ]: non-standard residue; d: D form. X1 = CC[C@H](C)[C@@H](N[*:1])[C@@H](O)CC(=O)O[C@H](C(=O)[C@H](C)C(=O)[*:2])C(C)C; X2 = CC(C(=O)C(OC(=O)CC(O)C(N[*:1])C(C)C)C(C)C)C(=O)[*:2]; X3 = COc1ccc(CC(C(=O)[*:2])N(C)[*:1])cc1Cl; NMeY = CN[C@@H](Cc1ccc(O)cc1)C(=O)O; dNMeL = CN[C@H](CC(C)C)C(=O)O; NMeL = CN[CH](CC(C)C)C(=O)O

Columns and labels:
[1] = target: T1, inducible nitric oxide synthase (iNOS) (Mus musculus, UniProt P29477); assay: Inhibition of iNOS activity in LPS induced macrophages (RAW264.7 cells); format: cell-based
T1 construct: endogenous in cells; host or cells: RAW264.7 macrophages, LPS induced
T1 sequence (P29477 1-1144): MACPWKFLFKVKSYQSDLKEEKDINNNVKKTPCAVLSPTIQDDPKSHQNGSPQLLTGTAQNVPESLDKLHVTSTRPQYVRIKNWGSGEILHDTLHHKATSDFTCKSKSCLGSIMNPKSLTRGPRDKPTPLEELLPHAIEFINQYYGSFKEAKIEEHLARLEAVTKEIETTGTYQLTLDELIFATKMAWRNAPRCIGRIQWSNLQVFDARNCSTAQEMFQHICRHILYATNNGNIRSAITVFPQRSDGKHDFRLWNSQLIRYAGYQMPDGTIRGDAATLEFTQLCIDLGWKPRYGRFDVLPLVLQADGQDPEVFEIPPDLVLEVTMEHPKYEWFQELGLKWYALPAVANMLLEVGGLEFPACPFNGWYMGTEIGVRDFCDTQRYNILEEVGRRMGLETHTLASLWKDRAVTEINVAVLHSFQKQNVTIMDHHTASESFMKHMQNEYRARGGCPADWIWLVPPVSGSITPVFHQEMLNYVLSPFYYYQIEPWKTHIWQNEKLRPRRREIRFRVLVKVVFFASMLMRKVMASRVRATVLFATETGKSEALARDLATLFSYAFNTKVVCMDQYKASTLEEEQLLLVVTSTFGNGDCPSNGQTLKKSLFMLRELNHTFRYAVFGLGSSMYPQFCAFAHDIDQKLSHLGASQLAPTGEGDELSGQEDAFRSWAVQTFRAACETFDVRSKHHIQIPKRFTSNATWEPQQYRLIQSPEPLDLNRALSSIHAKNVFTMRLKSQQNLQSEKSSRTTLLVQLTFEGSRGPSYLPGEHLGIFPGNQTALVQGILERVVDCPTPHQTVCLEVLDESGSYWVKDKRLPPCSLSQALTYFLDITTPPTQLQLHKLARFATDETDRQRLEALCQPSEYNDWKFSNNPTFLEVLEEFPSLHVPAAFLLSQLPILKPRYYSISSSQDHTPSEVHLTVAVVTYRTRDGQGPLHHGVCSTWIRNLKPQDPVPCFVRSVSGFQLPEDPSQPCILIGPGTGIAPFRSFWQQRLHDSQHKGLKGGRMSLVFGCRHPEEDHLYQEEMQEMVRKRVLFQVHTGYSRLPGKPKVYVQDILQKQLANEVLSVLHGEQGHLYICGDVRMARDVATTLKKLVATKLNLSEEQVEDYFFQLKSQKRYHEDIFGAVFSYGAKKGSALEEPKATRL
Protocol: (§1) The isolated compounds 1–4 were tested in a series of in vitro cell-based assays for their effects on selected targets involved in the process of inflammation and cancer. Inflammation and oxidative stress are known to be linked to the development of many disorders such as cancer, organ damage, and neurodegenerative conditions. The NF-κB family of transcription factors plays a key role in inflammation, cell cycle regulation, apoptosis, and oncogenesis by controlling gene network expression. The activation of NF-κB involves many cellular processes leading to inflammation and development of cancer. In the assay for NF-κB activity, a luciferase construct with binding sites for specificity protein (SP-1) was used as a control because this transcription factor is relatively unresponsive to inflammatory mediators such as phorbol myristate acetate (PMA). Inducible nitric oxide synthase (iNOS) plays a key role in regulation of blood pressure, the immune system, infection, and inflammation. Overproduction of nitric oxide (NO) by iNOS has been implicated in various pathological processes such as septic shock, inflammation, rheumatoid arthritis, cancer, and tissue damage. The increase in NO response caused mainly by endotoxins and proinflammatory mediators such as lipopolysaccharide (LPS) can be reduced by anti-inflammatory agents acting as iNOS inhibitors. The isolated metabolites were also evaluated for their cytotoxicity towards four human solid tumor cell lines (SK-MEL: melanoma; KB: epidermal carcinoma; BT549: breast carcinoma and SK-OV-3: ovarian carcinoma) and non-cancer kidney cells (Vero: monkey kidney fibroblasts).
(§2) Similar to the effect of doxorubicin, the compounds (1–3) were less toxic towards noncancerous cells (Vero cells) which were included for comparison. The strong anticancer activity can be partly explained due to a strong inhibition of NF-κB mediated transcription that may cause enhanced apoptosis and cell death.
(§3) Inhibition of NF-κB mediated transcription was determined in SW1353 cells by a reporter gene assay as described by Ma et al.. Inhibition of iNOS activity was determined in RAW264.7 cells as described earlier. In vitro cytotoxicity was determined against a panel of four solid tumor cell lines and compared with noncancerous kidney cells (Vero). Parthenolide and doxorubicin were used as positive controls for anti-inflammatory and cytotoxic activity, respectively.

[2] = test system: nuclear factor-kappa B (NF-κB); assay: Inhibition of NF-κB mediated transcription, reporter gene assay in PMA induced SW1353 chondrocytes; format: cell-based; settings: Homo sapiens, SW1353 cells
Protocol: as §1, §2, §3

SK-MEL = assay: In vitro cytotoxicity, SK-MEL melanoma; format: cell-based; settings: Homo sapiens, read-out: Anti-cell proliferative activity IC50, SK-MEL
Protocol: as §1, §3

KB = assay: In vitro cytotoxicity, KB epidermal carcinoma; format: cell-based; settings: Homo sapiens, read-out: Anti-cell proliferative activity IC50, KB
Protocol: as §1, §3

BT-549 = assay: In vitro cytotoxicity, BT-549 breast carcinoma; format: cell-based; settings: Homo sapiens
Protocol: as §1, §3

SK-OV-3 = assay: In vitro cytotoxicity, SK-OV-3 ovarian carcinoma; format: cell-based; settings: Homo sapiens
Protocol: as §1, §3

VERO = assay: In vitro cytotoxicity, Vero non-cancer kidney fibroblasts; format: cell-based, monkey; settings: Primates, read-out: Anti-cell proliferative activity IC50, VERO
Protocol: as §1, §3

[3] = BT-549, read-out: Anti-cell proliferative activity IC50, BT-549
[4] = SK-OV-3, read-out: Anti-cell proliferative activity IC50, SK-OV-3
[5] = RAW264.7 cells, LPS induced, read-out: iNOS inhibition IC50

Structure (SMILES): CC[C@H](C)[C@H]1NC(=O)[C@@H](NC(=O)[C@@H](CC(C)C)NC)[C@@H](C)OC(=O)[C@H](Cc2ccc(OC)cc2)N(C)C(=O)[C@@H]2CCCN2C(=O)[C@H](CC(C)C)NC(=O)[C@@H](C)C(=O)[C@H](C(C)C)OC(=O)C[C@@H]1O [Compound 3, didemnin A] (H-[dNMeL]T[X1]LP[NMeY](Me); ester 2-C)
- IC50 [1]: 0.19 µM
- IC50 [2]: 0.19 µM
- IC50 (SK-MEL): 0.055 µM
- IC50 (KB): 0.16 µM
- IC50 (BT-549; [3]): 0.07 µM
- IC50 (SK-OV-3; [4]): 0.16 µM
- IC50 (VERO): 4.78 µM

Structure (SMILES): CNC(CC(C)C)C(=O)NC1C(=O)NC(C(C)C)C(O)CC(=O)OC(C(C)C)C(=O)C(C)C(=O)NC(CC(C)C)C(=O)N2CCCC2C(=O)N(C)C(Cc2ccc(OC)c(Cl)c2)C(=O)OC1C (centres unmarked) [Compound 2, nor-N,O-diMe-o-chlorotyrosine derivative of didemnin A] (H-[NMeL]T[X2]LP[X3]; ester 2-C; configuration not given here)
- IC50 [1, 5]: 0.42 µM
- IC50 [2]: 0.62 µM
- IC50 (SK-MEL): 0.06 µM
- IC50 (KB): 0.42 µM
- IC50 (BT-549; [3]): 0.16 µM
- IC50 (SK-OV-3; [4]): 0.38 µM
- IC50 (VERO): 2.08 µM

Structure (SMILES): C=C1C(=O)O[C@H]2[C@H]1CC/C(C)=C/CC[C@@]1(C)O[C@@H]21 [Parthenolide, reference compound]
- IC50 [1, 5]: 2.8 µM
- IC50 [2]: 2.8 µM

Structure (SMILES): COc1cccc2c1C(=O)c1c(O)c3c(c(O)c1C2=O)C[C@@](O)(C(=O)CO)C[C@@H]3O[C@H]1C[C@H](N)[C@H](O)[C@H](C)O1 [Doxorubicin, reference compound]
- IC50 (SK-MEL; melanoma): 1.1 µM
- IC50 (KB; epidermal carcinoma): 1.66 µM
- IC50 (BT-549; BT-549, breast carcinoma, read-out: Anti-cell proliferative activity IC50, BT-549): 1.01 µM
- IC50 (SK-OV-3; SK-OV-3, ovarian carcinoma, read-out: Anti-cell proliferative activity IC50, SK-OV-3): 1.66 µM
- IC50 (VERO; noncancerous monkey kidney fibroblasts): 14 µM

Structure (SMILES): CC[C@H](C)[C@H]1NC(=O)[C@@H](NC(=O)[C@@H](CC(C)C)N(C)C(=O)[C@@H]2CCCN2C(=O)C(C)O)[C@@H](C)OC(=O)[C@H](Cc2ccc(OC)cc2)N(C)C(=O)[C@@H]2CCCN2C(=O)[C@H](CC(C)C)NC(=O)[C@@H](C)C(=O)[C@H](C(C)C)OC(=O)C[C@@H]1O (some centres unmarked) [Compound 4, didemnin B]
- IC50 [1]: 0.002 µM
- IC50 [2]: 0.03 µM
- IC50 (SK-MEL): 0.022 µM
- IC50 (KB): 0.09 µM
- IC50 (BT-549; [3]): 0.02 µM
- IC50 (SK-OV-3; [4]): 0.1 µM
- IC50 (VERO): 0.15 µM

Structure (SMILES): CCC(C)C1NC(=O)C(NC(=O)C(CC(C)C)NC)C(C)OC(=O)C(Cc2ccc(OC)c(Cl)c2)N(C)C(=O)C2CCCN2C(=O)C(CC(C)C)NC(=O)C(C)C(=O)C(C(C)C)OC(=O)CC1O (centres unmarked) [Compound 1, N,O-diMe-o-chlorotyrosine derivative of didemnin A]
- IC50 [1, 5]: 0.4 µM
- IC50 [2]: 0.26 µM
- IC50 (SK-MEL): 0.12 µM
- IC50 (KB): 0.26 µM
- IC50 (BT-549; [3]): 0.16 µM
- IC50 (SK-OV-3; [4]): 0.26 µM
- IC50 (VERO): 4.8 µM
